From ChEMBL document CHEMBL1151397, “The Alkaloids of Stephania glabra” (1982)

Tested on: Ileum
Test: Spasmolytic activity in guinea pig ileum assessed as blockade of muscle contractions at 25 ug
Assay type: functional, Cavia porcellus

COc1cc2c3c(c1OC)C1(C=CC(=O)C=C1)C[C@H]3N(C)CC2.Cl [PRONUCIFERINE HYDROCHLORIDE]
Activity: 75%
